Among the data in patent US20230348424A1, “HETEROCYCLIC COMPOUNDS AND METHODS OF USE” (Schrödinger, Inc., priority 2022, published 2023) are IC50 and Kd values, retold here.

For experiment [1], the target named is SOS1:KRAS (G12C) interaction (Homo sapiens (Human), UniProt Q07889). Description: SOS1 KRas(G12C) FRET Assay. As to conditions: 0.5 nM His10-SOS1 (res. 564-1049), 2.5 nM GST-KRAS G12C (res. 1-169), 2 hrs at RT. Type of experiment: binding. The method, boiled down:
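GST-KRAS G12C (res. 1-169) at 2.5 nM and His10-SOS1 (res. 564-1049) at 0.5 nM, final, in PBS with 0.1% BSA, 5 mM MgCl2, 100 mM KF, 5 mM DTT and 0.5% DMSO. After 2 h at RT, FRET read at 665/615 nm and normalized to DMSO and no-SOS1 controls. IC50 by non-linear regression.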

The next experiment addresses human SOS1 (Homo sapiens (Human), UniProt Q07889). Put plainly: Surface Plasmon Resonance (SPR) SOS1 Binding Assay. As to conditions: biotinylated SOS1 (res. 564-1049), Biacore 8K, 25° C., kinetic or steady state fit, 1:1 binding; read-out: hSOS1 KD. The method, then: Binding to SOS1 was measured using a SPR assay with purified recombinant human SOS1 substrate (res. 564-1049 with N-terminal Avi tag; purified and biotinylated based on Hillig, et al., Proc Natl Acad Sci USA (2019); 116(7):2551-2560). SPR measurements were performed on a Biacore 8K SPR instrument (GE Healthcare, Sweden). Assays were performed at 25° C. using Series S SA sensor chips pre-coated with streptavidin (GE Healthcare, Cat. BR100531). Biotinylated SOS1 diluted in sample buffer (20 mM Tris HCI, 150 mM NaCl, 1 mM DTT, 0.05% TWEEN 20, 1 mM MgCh, pH 8.0) was captured to one flow cell of the chip to about 3,000 resonance units (RU) using sample buffer supplemented with 5% DMSO as a running buffer. Serial dilutions of the assayed compounds in the running buffer at 100, 50 or 0.5 µM were injected for 60 s at a flow rate of 30 µL/min and association phases were recorded. Dissociation of the samples was monitored for 600 s. Data processing was performed using Biacore Insight Software (Biacore, GE Healthcare). Sensorgrams recorded on a SA flow cell without captured protein were subtracted from sensorgrams recorded on the SOS1 surface. Blank injections of running buffer were used for double referencing and solvent correction was applied to all sample sensorgrams to correct for buffer mismatches. KDS were estimated using a kinetic or steady state, where applicable, fitting model describing a reversible equilibrium with 1:1 binding between SOS1 and the compound.
For orientation: In SPR one partner is held on a chip, and binding of the other changes the refractive index at the surface.

In general, IC50 refers to the concentration at which inhibition is half-maximal. One may read the Kd as the free concentration of one partner at which half of the binding sites on the other are occupied at equilibrium, for simple one-to-one binding.

`C[C@@H](NC(=O)c1cn(C2(C(F)F)CCC2)c(=O)cc1N[C@H]1[C@@H]2CN(C)C[C@@H]21)c1cccc(C(F)F)c1F` [Example 131, N-((R)-1-(3-(difluoromethyl)-2-fluorophenyl)ethyl)-1-(1-(difluoromethyl)cyclobuty 1)-4-(((1R,5S,6s)-3-methyl-3-azabicyclo[3.1.0]hexan-6-yl)amino)-6-oxo-1,6-dihydropyridine-3-carboxamide] showed an IC50 in experiment [1] of 22.1 nM. The Kd at human SOS1 worked out at 17 nM.

`C[C@@H](NC(=O)c1cn(C2(C(F)F)CC2)c(=O)cc1N[C@@H]1CCN(C)C[C@H]1F)c1cccc(C(F)F)c1F` (single isomer, unassigned) [Example 65] showed an IC50 in experiment [1] of 50.4 nM. Moreover, the equilibrium dissociation constant (Kd) at human SOS1 turned out to be 48 nM.

For `C[C@@H](NC(=O)c1cn([C@H]2C[C@H](F)C2)c(=O)cc1N[C@H]1[C@@H]2CN(C)C[C@@H]21)c1cccc(C(F)F)c1F` [Example 97, N-((R)-1-(3-(difluoromethyl)-2-fluorophenyl)ethyl)-1-((1r,3R)-3-fluorocyclobutyl)-4-(((1R,5S,6s)-3-methyl-3-azabicyclo[3.1.0]hexan-6-yl)amino)-6-oxo-1,6-dihydropyridine-3-carboxamide], half-maximal inhibition in experiment [1] (IC50) required 16.7 nM. For the same compound, the Kd at human SOS1 was determined as 7 nM.

`C[C@@H](NC(=O)c1cn([C@@H]2CC2(C)C)c(=O)cc1N[C@H]1[C@@H]2CN(C)C[C@@H]21)c1cccc(C(F)F)c1F` (single isomer, unassigned) [Example 94] gave a concentration for half-maximal inhibition (IC50) in experiment [1] of 13.4 nM. For the same compound, the Kd at human SOS1 came to 7 nM.

The compound `Cc1c([C@@H](C)NC(=O)c2cn(C3CCOCC3)c(=O)cc2N[C@H]2CCCN(C)C2)cccc1C(F)(F)F` [Example 6, N-((R)-1-(2-methyl-3-(trifluoromethyl)phenyl)ethyl)-4-(((S)-1-methylpiperidin-3-yl)amino)-6-oxo-1-(tetrahydro-2H-pyran-4-yl)-1,6-dihydropyridine-3-carboxamide] had an IC50 in experiment [1] of 56.7 nM. Also, the Kd on human SOS1 was 30 nM.

In experiment [1], `C[C@@H](NC(=O)c1cn([C@H]2CCC2(F)F)c(=O)cc1N[C@H]1[C@@H]2CN(C)C[C@@H]21)c1cccc(C(C)(F)F)c1F` (single isomer, unassigned) [Example 148] displayed an IC50 of 7.4 nM. Also, at human SOS1, the Kd was found to be 6 nM.

`C[C@@H](NC(=O)c1cn([C@@H]2CCC2(F)F)c(=O)cc1N[C@H]1[C@@H]2CN(C)C[C@@H]21)c1cccc(C(F)F)c1F` (single isomer, unassigned) [Example 103] displayed an IC50 in experiment [1] of 5.7 nM. Moreover, the Kd at human SOS1 was determined as 3 nM.

The compound `C[C@@H](NC(=O)c1cn([C@@H]2CCC2(F)F)c(=O)cc1NCC1(F)CN(C)C1)c1cccc(C(F)F)c1F` [Example 147, 1-((R)-2,2-difluorocyclobutyl)-N-((R)-1-(3-(difluoromethyl)-2-fluorophenyl)ethyl)-4-(((3-fluoro-1-methylazetidin-3-yl)methyl)amino)-6-oxo-1,6-dihydropyridine-3-carboxamide] yielded an IC50 in experiment [1] of 45 nM. Further, the Kd at human SOS1 was found to be 73 nM.

In experiment [1], `C[C@@H](NC(=O)c1cn(C2(C(F)F)CC2)c(=O)cc1NCCN1CCOCC1)c1cccc(C(F)F)c1F` [Example 81, (R)-N-(1-(3-(difluoromethyl)-2-fluorophenyl)ethyl)-1-(1-(difluoromethyl)cyclopropyl)-4-((2-morpholinoethyl)amino)-6-oxo-1,6-dihydropyridine-3-carboxamide] returned an IC50 of 174 nM. Besides, on human SOS1, the Kd came out at 96 nM.

Regarding `C[C@@H](NC(=O)c1cn(C23CC(C2)C3)c(=O)cc1N[C@H]1CN2CCC1CC2)c1cccc(C(F)F)c1F` [Example 155, 1-(bicyclo[1.1.1]pentan-1-yl)-N-((R)-1-(3-(difluoromethyl)-2-fluorophenyl)ethyl)-6-oxo-4-(((R)-quinuclidin-3-yl)amino)-1,6-dihydropyridine-3-carboxamide], inhibition in experiment [1] was half-maximal at 21.2 nM (IC50). Also, on human SOS1, the Kd is 11 nM.

For the compound `C[C@@H](NC(=O)c1cn(C2(C(F)F)CC2)c(=O)cc1N[C@@H]1CCN(C)C[C@@H]1F)c1cccc(C(F)F)c1F` (single isomer, unassigned) [Example 63], 11.3 nM corresponded to half-maximal inhibition in experiment [1] (IC50). Besides, the equilibrium dissociation constant (Kd) on human SOS1 worked out at 7 nM.

For `Cc1c([C@@H](C)NC(=O)c2cn(C3CCOCC3)c(=O)cc2NC2CCOCC2)cccc1C(F)(F)F` [Example 42, (R)-N-(1-(2-methyl-3-(trifluoromethyl)phenyl)ethyl)-6-oxo-1-(tetrahydro-2H-pyran-4-yl)-4-((tetrahydro-2H-pyran-4-yl)amino)-1,6-dihydropyridine-3-carboxamide], the IC50 in experiment [1] is 553 nM. At human SOS1, the Kd stood at 186 nM.

The compound `C[C@@H](NC(=O)c1cn(C23CC(F)(C2)C3)c(=O)cc1N[C@@H]1CCN(C)C[C@@H]1F)c1cccc(C(F)F)c1F` [Example 143, N-((R)-1-(3-(difluoromethyl)-2-fluorophenyl)ethyl)-4-(((3S,4R)-3-fluoro-1-methylpiperidin-4-yl)amino)-1-(3-fluorobicyclo[1.1.1]pentan-1-yl)-6-oxo-1,6-dihydropyridine-3-carboxamide] had an IC50 in experiment [1] of 3.8 nM. For the same compound, the Kd on human SOS1 amounted to 3 nM.

In the case of `C[C@@H](NC(=O)c1cn(C2(C(F)(F)F)CC2)c(=O)cc1N[C@H]1[C@@H]2CC[C@H]1CN(C)C2)c1cccc(C(F)F)c1F` (single isomer, unassigned) [Example 139], inhibition in experiment [1] was half-maximal at 49.7 nM (IC50). Moreover, the Kd at human SOS1 amounted to 25 nM.

In experiment [1], `C[C@@H](NC(=O)c1cn(C23CC(C(F)F)(C2)C3)c(=O)cc1N[C@H]1[C@@H]2CN(C)C[C@@H]21)c1cccc(C(F)F)c1F` [Example 105, N-((R)-1-(3-(difluoromethyl)-2-fluorophenyl)ethyl)-1-(3-(difluoromethyl)bicyclo [1. 1.1]pentan-1-yl)-4-(((1R,5S,6s)-3-methyl-3-azabicyclo[3.1.0]hexan-6-yl)amino)-6-oxo-1,6-dihydropyridine-3-carboxamide] displayed a 50% inhibitory concentration (IC50) of 13 nM. For the same compound, on human SOS1, the Kd was 9 nM.

For `C[C@H](Nc1cc(=O)n(C2(C(F)F)CC2)cc1C(=O)N[C@H](C)c1cccc(C(F)F)c1F)c1cncn1C` [Example 87, N-((R)-1-(3-(difluoromethyl)-2-fluorophenyl)ethyl)-1-(1-(difluoromethyl)cyclopropyl)-4-(((S)-1-(1-methyl-1H-imidazol-5-yl)ethyl)amino)-6-oxo-1,6-dihydropyridine-3-carboxamide], the IC50 in experiment [1] was 61.7 nM. Moreover, the Kd on human SOS1 was found to be 84 nM.

As to “N-((R)-1-(3-(difluoromethyl)-2-fluorophenyl)ethyl)-1-(1- (difluoromethyl)cyclopropyl)-4-(((1R,5S,6s)-3-methyl-3-azabicyclo[3.1.0]hexan-6-yl)amino)-6- oxo-1,6-dihydropyridine-3-carboxamide [Example 55]”, in experiment [1], the midpoint of inhibition, the IC50, lay at 23.6 nM. The dissociation constant (Kd) at human SOS1 stood at 12 nM.

As to `C[C@@H](NC(=O)c1cn(C2CC2)c(=O)cc1N[C@H]1[C@@H]2CC[C@H]1CN(C)C2)c1cccc(C(F)F)c1F` (single isomer, unassigned) [Example 141], in experiment [1], the 50% inhibitory concentration (IC50) was 62.8 nM. In addition, the Kd on human SOS1 stood at 33 nM.
